Experimental data reported in US8420307B2, “Sperm cryoprotective media” (The Jackson Laboratory, priority 2006, dated 2013).
“Also recorded” adds a separate entry of the source.

Tests used:
C57BL/6 Sperm = assay: Post-thaw motility of mouse sperm (IVOS computerized semen analysis); type: cell-based; settings: for IVF Fit: motility of at least 5% is required to achieve fertilization in IVF
Protocol: To determine the concentration, motility, and progressive motility of “freshly-collected” sperm, the sperm is typically diluted 1:20 in either phosphate buffered saline or Cooks Mouse Vitro Fert (Cook Australia; Queensland, Australia; (Quinn et al., 1995)). To assess thawed sperm, sperm is incubated in IVF medium for an hour, at a dilution of 1:50 in the IVF drop. It is then loaded into a Hamilton Thom IVOS computerized semen analyzer (Hamilton Thom, Beverly, Mass.). For measurement, the calibration parameters are set as follows: • Apply Sort: 2 • Frames acquired: 30 • Frame rate: 60 Hz • Minimum contrast: 30 • Minimum Cell Size: 4 pixels • Minimum Static Contrast: 15 • Straightness (STR), Threshold: 50% • Low VAP Cutoff: 10.0 μm/s • Medium VAP Cutoff: 50.0 μmis • Low VSL Cutoff: 0.0 grids • Head Size, Non-Motile: 13 pixels • Head Intensity, Non-Motile: 75 • Static Head Size: 0.57 to 2.91 • Static Head Intensity: 0.14 to 1.84 • Static Elongation: 0 to 87 • Slow Cells Motile: YES • Magnification: 0.82 • Video Source Camera • Video Frequency: 60 • Bright Field No • Brightness for LED: 2663 • Brightness for Ident: 3000 • Temperature, Set: 37° C.
If the compound is capable of reducing ROS at the tested concentration, then its effect on sperm motility and fertilization is tested. While the sperm motility assay is a helpful fast screening tool in the case of mouse, this assay is not required for mouse and one can perform only the IVF assay in the case of mouse. For other species, e.g. bovine, the sperm motility assay together with the fluorescence assay is sufficient. The sperm motility assay can be done either with fresh or cryopreserved sperm. For example, the motility can be determined as described in Example 6 (Determination of Sperm Concentration and Motility), using an IVOS instrument. Briefly, C57BL/6 sperm were diluted 1:50 in pre-warmed and gassed mouse vitro fert (Cook's; Spencer, Ind.) under light mineral oil. The samples were incubated for an hour at 37° C., in a humidified atmosphere of 5% CO2, 5% O2 and 90% nitrogen in a K-MINC-1000 bench top incubator (Cook's; Spencer, Ind.). After incubation, the sperm were drawn into 0.1×2.0 mm I.D. tubes (VitroCom Inc. Mt Lks. N.J.) using capillary action and 3 manually selected fields per sample were analyzed for motility using the Hamilton Thorn (Beverly, Mass.) integrated visual optics system (IVOS) for computerized semen analysis. Applicants have shown that sperm frozen in CPM containing no free radical scavenger, 0.477 mM MTG, 0.1 mM DTT, 1 mM DTT, 5 mM DTT, 20 mM DTT, 0.5 mM GSH, 1 mM GSH, 5 mM GSH or 50 mM GSH can be assessed for motility and that motility of at least 5% is required to achieve fertilization in IVF.

[1] = test system: cryopreserved mouse sperm; assay: In vitro fertilization with thawed cryopreserved sperm: fertilization rate (#2-cell embryos/# total oocytes); type: cell-based; settings: for effect on fertilization rate / fertility of cryopreserved C57BL/6J sperm: MTG 159 μM to 636 μM in CPM, relative to presently-available methods, FIG. 1
Protocol: The epididymides and vas deferentia are extracted from the C57BL/6J male and placed into the cryoprotective media described herein. […] Incisions are made in the tissues, allowing the sperm to swim out into the CPM; this is allowed for at least 5 but for less than 20 min. The residual tissues are then removed from the collection drop. Ten micro liters of the sperm sample are loaded into as many as one hundred 250 μL French straws (IMV; Maple Grove, Minn.). Two hundred and fifty microliter straws, containing a 5.5 cm column of CPM, a 2.5 cm column of air, a 0.6 cm column of sperm sample followed by a column of air, are sealed with an instantaneous heat sealer. The straws are loaded into cassettes and exposed to liquid nitrogen vapor for at least 10 min before being plunged into the liquid nitrogen. This essentially cools the sperm at 37° C./min.
Subsequent to storage in liquid nitrogen, 3 samples from each treatment are thawed in a 37° C. water bath for 30 sec, and then each 10 μL aliquot is placed directly into its own 500 μL in vitro fertilization (IVF) drop of Cooks Mouse Vitro Fert (Cook Australia; Queensland, Australia). After an hour of incubation, 4 cumulus intact oocyte clutches from superovulated C57BL/6J females are added to the in vitro fertilization drops. IVF is carried out using methods known to those of skill in the art, such as by the methods described by Nakagata. (Nakagata, 2000a; Nakagata, 2000b). The sperm and oocytes are incubated together for 4 hrs before the presumptive zygotes are removed from the IVF drop and placed in a culture drop for overnight incubation.
Approximately 18 hours later, the percentage of oocytes developing into 2-cell embryos is determined (#2-cell embryos/# total oocytes). For statistical analysis, percents are arcsine transformed and the averages of at least 3 IVF drops per treatment are evaluated with a T-Test. A difference between treatments is illustrated with an asterisk (p<0.05). For presentation, means and standard errors were converted back into percents. […]
Ten μL aliquots of sperm from a variety of mouse strains as listed in Table 7 are frozen in the CPM with 477 μM monothioglycerol as ROS(CPM). A total of at least 6 sperm samples per treatment within a strain are utilized. These represented at least 3 samples from each of at least 2 sets of 2 males whose sperm are pooled at the time of collection and then split into the two treatments. Subsequent to thawing the samples are placed directly into their own 500 μL in vitro fertilization (IVF) drop of Cooks Mouse Vitro Fert (Cook Australia; Queensland, Australia; (Quinn et al., 1995)). After an hour incubation, 4 cumulus intact oocyte clutches from isogenic strains were added to the incubation medium. Following a 4 hr co-incubation, the presumptive zygotes were washed and cultured overnight. Approximately 18 hours later, the fertilization rate was determined (% 2 cell: #2-cell embryos/# total oocytes, see Table 7). The average percentage was determined. For each line, about 30 2-cell embryos were implanted into receptive females. After approximately 21 days, the number of live born mice was determined, shown as % Live born in Table 7.
To determine if storage of the cryoprotective media at −80° C. altered the activity of the C57BL/6J mouse sperm., in vitro fertilizations (IVF) were preformed as described previously (see Example 1, also see publications by Nakagata, 2000a; Nakagata, 2000b, Sztein et al. 2000; Byers et al. 2006). Briefly the sperm and oocytes, both from C57BL/6J mice, were incubated together for 4 hrs in a benchtop incubator at 37° C. After 4 hrs of co-incubation the presumptive zygotes were washed through two 150 μL drops of IVF media (MVF; Cook's; Spencer, Ind.) and then cultured overnight. Approximately 18 hrs later, the proportion of oocytes fertilized was calculated by dividing the number of two-cell embryos by the sum of two-cells and normally appearing presumptive one-cell oocytes. […]

[2] = C57BL/6 sperm frozen in CPM containing 1 mM free radical scavenger
[3] = C57BL/6 sperm frozen in CPM containing 5 mM free radical scavenger
[4] = C57BL/6 sperm cryopreserved in CPM containing 1 mM free radical scavenger
[5] = C57BL/6 sperm cryopreserved in CPM containing 5 mM free radical scavenger

O[C@H](CS)[C@H](O)CS (racemic) [DTT, dithiothreitol]
IVF Fit (C57BL/6 Sperm; 0.1 mM): yes | IVF Fit (C57BL/6 Sperm; 1 mM): yes | IVF Fit (C57BL/6 Sperm; 5 mM): yes | IVF Fit (C57BL/6 Sperm; 20 mM): no | Average Post Thaw Motility (C57BL/6 Sperm; C57BL/6 sperm frozen in CPM containing 0.1 mM free radical scavenger): 24.6% | Average Post Thaw Motility (C57BL/6 Sperm; [2]): 34% | Average Post Thaw Motility (C57BL/6 Sperm; [3]): 17.6% | Average Post Thaw Motility (C57BL/6 Sperm; C57BL/6 sperm frozen in CPM containing 20 mM free radical scavenger): 1.6% | Fertilization Rate (2-cell embryos of total oocytes) ([1]; C57BL/6 sperm cryopreserved in CPM containing 0.1 mM free radical scavenger): 19.2% | Fertilization Rate (2-cell embryos of total oocytes) [1, 4]: 2% | Fertilization Rate (2-cell embryos of total oocytes) [1, 5]: 0.9% | Fertilization Rate (2-cell embryos of total oocytes) ([1]; C57BL/6 sperm cryopreserved in CPM containing 20 mM free radical scavenger): 6.4%

OCC(O)CS (stereo not shown) [MTG, monothioglycerol]
IVF Fit (C57BL/6 Sperm; 0.477 mM): yes | Average Post Thaw Motility (C57BL/6 Sperm; C57BL/6 sperm frozen in CPM containing 0.477 mM free radical scavenger): 16% | MTG concentration that provided the best results (fertilization rate) ([1]; C57BL/6J sperm, MTG tested from 159 μM to 636 μM): 477 µM | Fertilization Rate (2-cell embryos of total oocytes) ([1]; C57BL/6 sperm cryopreserved in CPM containing 0.477 mM free radical scavenger): 75.2% | effect on fertilization rate / fertility of cryopreserved C57BL/6J sperm [1]: improved fertilization rate | effect on fertilization rate / fertility of cryopreserved C57BL/6J sperm ([1]; listed as monothioglycerol): enhances the fertility

N[C@@H](CCC(=O)N[C@@H](CS)C(=O)NCC(=O)O)C(=O)O [GSH, reduced glutathione]
IVF Fit (C57BL/6 Sperm; 0.5 mM): yes | IVF Fit (C57BL/6 Sperm; 1 mM): yes | IVF Fit (C57BL/6 Sperm; 5 mM): yes | IVF Fit (C57BL/6 Sperm; 50 mM): no | Average Post Thaw Motility (C57BL/6 Sperm; C57BL/6 sperm frozen in CPM containing 0.5 mM free radical scavenger): 32% | Average Post Thaw Motility (C57BL/6 Sperm; [2]): 25.3% | Average Post Thaw Motility (C57BL/6 Sperm; [3]): 41.67% | Average Post Thaw Motility (C57BL/6 Sperm; C57BL/6 sperm frozen in CPM containing 50 mM free radical scavenger): 0.6% | Fertilization Rate (2-cell embryos of total oocytes) ([1]; C57BL/6 sperm cryopreserved in CPM containing 0.5 mM free radical scavenger): 59.7% | Fertilization Rate (2-cell embryos of total oocytes) [1, 4]: 49.5% | Fertilization Rate (2-cell embryos of total oocytes) [1, 5]: 39.9% | Fertilization Rate (2-cell embryos of total oocytes) ([1]; C57BL/6 sperm cryopreserved in CPM containing 50 mM free radical scavenger): 0.0% | effect on fertilization rates / fertility of cryopreserved C57BL/6J sperm ([1]; GSH 500 μM to 5 mM in CPM, compared to CPM without a reducing agent, FIG. 2): increase the fertilization rates; also recorded: enhances the fertility
